Source: patent publication US20040138207A1, “Antitumor agents” (priority 2001, published 2004)
Where “and” joins values, the source holds several entries; their conditions need not be identical. Equal entries are not always repeated. Where two headings read alike, the source gives them in different places.

Assays:
[1] = tested on: human large bowel cancer cell COLO320DM; assay: Example 3 comparison with other gastrin/CCK-B antagonist in COLO320DM bearing mice; format: in vivo; details: 10 days
Procedure: In human large bowel cancer cell COLO320DM bearing mice, the administration of compound A was started when the tumor volume reached to about 120 mm^3 in a similar manner to that described in the Example 2. Its dose per day was 60 or 200 mg/kg, and the administration period was 10 days. As a comparative compound, (3RS)-N-(1-(1-tert-butylcarbonylmethyl)-2,3-dihydro-2-oxo-5-(2-pyridyl)-1H-1,4-benzodiazepin-3-yl)-N′-(3-(dimethylamino)phenyl)urea whose data on inhibitory effect of pentagastrin-stimulus gastric acid secretion in a dog are disclosed as “compound of Example 38” in the aforementioned WO 93/16999 was administered in the same manner at a dose of 200 mg/kg.
The tumor growth inhibition ratio was calculated in a similar manner to that described in Example 2. The tumor growth inhibition ratio when 60 or 200 mg/kg of the compound A was administered was 20 or 27%, respectively.

[2] = tested on: human large bowel cancer; details: without exogenous gastrin stimulation, cited from earlier work
[3] = tested on: human pancreatic cancer cell line BxPC-3; assay: Example 4 comparison with gemcitabine, tumor growth in BxPC-3 bearing nude mice; format: in vivo
Procedure: (§1) A total of 3×10^6 cells of a human pancreatic cancer cell line BxPC-3 was injected into the dorsal side skin of female Balb/c nude mice (6 weeks of age). When the tumor volume reached to about 110 mm^3, 60, 200 or 600 mg/kg per day of the compound A was orally administered in a similar manner to that described in Example 2, every day by dividing the daily dose into two doses per day (n=5). Also, 0.5% methylcellulose solution was administered in the same schedule to the control group. The administration period was 14 days.
(§2) As a comparative compound, a known pancreatic cancer therapeutic agent Gemcitabine (GEM) was used in the same test. GEM was intravenously administered at a dose of 60, 120 or 240 mg/kg per day, once in three days. Physiological saline was administered to the control group in the same schedule.
The tumor growth inhibition ratio was calculated by same calculation formula in Example 2.

[4] = Example 4 side effect parameters in BxPC-3 bearing nude mice; format: in vivo
Procedure: as §1, §2
The tumor growth inhibition ratio in the compound A-treated group is shown in Table 3, and that in the GEM-treated group in Table 4, together with various parameters which indicate the degree of side effects.

[5] = tested on: cancer cell proliferation; details: group of no gastrin stimulation; cited from earlier work
[6] = tested on: human pancreatic cancer cell line BxPC-3; assay: Example 1 antitumor action in BxPC-3 bearing Balb/c nude mice; format: in vivo; details: BxPC-3, 200 mg/kg per day p.o. from day after injection, 23 days
Procedure: (§3) Three to 10×10^6 cells of human pancreatic cancer cell lines (BxPC-3 and PANC-1), human large bowel cancer cell lines (HT29 and COLO320DM) and a human gastric cancer cell line (MKN28) were injected into the dorsal side skin of female Balb/c nude mice. Starting on the next day of the subcutaneous injection of cancer cells, 200 mg/kg per day of the compound A was suspended in 0.5% methylcellulose and orally administered every day by dividing the daily dose into two doses per day. Also, 0.5% methylcellulose solution was administered in the same schedule to the control group. Using calipers, the tumor diameter was measured periodically until the next day of the final administration. The tumor volume and tumor growth inhibition ratio were calculated by the following calculation formulae.
(§4) Tumor volume (mm^3)=½×breadth (mm)^2×length (mm)
(§5) Tumor growth inhibition ratio (%)=[(tumor volume of control group—tumor volume of compound A administration group)/tumor volume of control group]×100

[7] = tested on: human pancreatic cancer cell line PANC-1; assay: Example 1 antitumor action in PANC-1 bearing Balb/c nude mice; format: in vivo; details: PANC-1, 200 mg/kg per day p.o., 49 days
Procedure: as §3, §4, §5

[8] = tested on: human large bowel cancer cell line HT29; assay: Example 1 antitumor action in HT29 bearing Balb/c nude mice; format: in vivo; details: HT29, 200 mg/kg per day p.o., 27 days
Procedure: as §3, §4, §5

[9] = tested on: human large bowel cancer cell line COLO320DM; assay: Example 1 antitumor action in COLO320DM bearing Balb/c nude mice; format: in vivo; details: 200 mg/kg per day p.o., 21 days
Procedure: as §3, §4, §5

[10] = tested on: human gastric cancer cell line MKN28; assay: Example 1 antitumor action in MKN28 bearing Balb/c nude mice; format: in vivo; details: MKN28, 200 mg/kg per day p.o., 20 days
Procedure: as §3, §4, §5

[11] = tested on: human pancreatic cancer cell BxPC-3; assay: Example 2 antitumor action in BxPC-3 cancer-bearing mice (established tumor); format: in vivo; details: 21 days, start at about 120 mm^3
Procedure: (§6) In human pancreatic cancer cell BxPC-3 bearing mice, administration of the compound A was started when the tumor volume reached to about 120 mm^3 in a similar manner to that described in the test example 1. Its dose per day was 200 or 600 mg/kg, and the administration period was 21 days.
The tumor growth inhibition ratio was calculated by the following calculation formula.
Tumor growth inhibition ratio (%)={[(tumor volume of control group on the administration-finished day−tumor volume of control group before commencement of the administration)−(tumor volume of compound A-treated group on the administration-finished day−tumor volume of compound A-treated group before commencement of the administration)]/(tumor volume of control group on the administration-finished day−tumor volume of control group before commencement of the administration)}×100

[12] = Example 2 toxicity (body weight, side effects) in BxPC-3 cancer-bearing mice; format: in vivo
Procedure: as §6

[13] = tested on: gastrin-stimulated gastric acid secretion; details: dog, 0.01 mg/kg oral administration; cited from earlier work
[14] = tested on: large bowel cancer; details: large bowel cancer-bearing mice; cited from earlier work
[15] = daily dose of 600 mg/kg continuously for 21 days

Compound: CN(C)c1cccc(NC(=O)NC2N=C(c3ccccn3)c3ccccc3N(CC(=O)C(C)(C)C)C2=O)c1 (racemic) [comparative compound, (3RS)-N-(1-(1-tert-butylcarbonylmethyl)-2,3-dihydro-2-oxo-5-(2-pyridyl)-1H-1,4-benzodiazepin-3-yl)-N′-(3-(dimethylamino)phenyl)urea, reference compound]
- tumor growth inhibitory action ([1]; 200 mg/kg): did not show

Compound: C[C@](Cc1c[nH]c2ccccc12)(NC(=O)OC1[C@H]2C[C@@H]3C[C@@H](C[C@H]1C3)C2)C(=O)NC[C@H](NC(=O)CCC(=O)O)c1ccccc1 (stereo partly drawn) [CI-988]
- growth inhibitory action ([2]; 25 mg/kg oral): showed a growth inhibitory action
- growth inhibitory action ([2]; 50 mg/kg oral): not found

Compound: Nc1ccn([C@@H]2O[C@H](CO)[C@@H](O)C2(F)F)c(=O)n1 [GEM, Gemcitabine, reference compound]
- Tumor growth inhibition ratio ([3]; 60 mg/kg i.v. once in three days): 22.2% and 22.2 ± 26.7%
- Tumor growth inhibition ratio ([3]; 120 mg/kg i.v. once in three days): 80.2% and 80.2 ± 20.1%
- dead cases ([4]; 240 mg/kg i.v. once in three days, n=5): 3/5 dead cases
- MTD at 14 days ([4]; female, Balb/c nude, mouse, in vivo, iv, i.v. once in three days, BxPC-3 bearing mice, read-out: MTD (maximum tolerated dose)): 120 mg/kg

Compound: Cc1cccc(NC(=O)N[C@@H]2N=C(c3ccccc3)c3ccccc3N(C)C2=O)c1 [L-365260]
- inhibition of cancer cell proliferation [5]: not found

Compound: CNc1cccc(NC(=O)N[C@@H]2N=C(c3ccccn3)c3ccccc3N(CC(=O)C(C)(C)C)C2=O)c1 [compound A, (3R)-N-(1-(1-tert-butylcarbonylmethyl)-2,3-dihydro-2-oxo-5-(2-pyridyl)-1H-1,4-benzodiazepin-3-yl)-N′-(3-(methylamino)phenyl)urea]
- Tumor growth inhibition ratio [6]: 65%
- Tumor growth inhibition ratio [7]: 52%
- Tumor growth inhibition ratio [8]: 36%
- Tumor growth inhibition ratio [9]: 47%
- Tumor growth inhibition ratio [10]: 31%
- Tumor growth inhibition ratio ([11]; 200 mg/kg per day): 48%
- Tumor growth inhibition ratio ([11]; 600 mg/kg per day): 79%
- Body weight ([12]; 200 mg/kg dose group, on the 21st day): 23.8 ± 0.5 g
- Body weight ([12]; 200 mg/kg dose group, the day before commencement of administration): 22.1 ± 0.5 g
- Body weight ([12]; 600 mg/kg dose group, on the 21st day): 23.3 ± 0.7 g
- Body weight ([12]; 600 mg/kg dose group, the day before commencement of administration): 21.4 ± 0.6 g
- influence on the mouse body weight [12, 15]: did not exert influence
- side effects [12, 15]: not observed
- Tumor growth inhibition ratio ([1]; 60 mg/kg per day): 20%
- Tumor growth inhibition ratio ([1]; 200 mg/kg per day): 27%
- Tumor growth inhibition ratio ([3]; 60 mg/kg p.o. per day, 14 days): 19.3 ± 23.6%
- Tumor growth inhibition ratio ([3]; 200 mg/kg p.o. per day, 14 days): 25.1%
- Tumor growth inhibition ratio ([3]; 200 mg/kg p.o. per day, 14 days, listed as Compound A): 25.1 ± 21.1%
- Tumor growth inhibition ratio ([3]; 600 mg/kg p.o. per day, 14 days): 78.2 ± 28.3%
- inhibition of gastrin-stimulated gastric acid secretion [13]: 50%

Compound: CCCN(CCC)C(=O)C(CCC(=O)O)NC(=O)c1ccccc1 (stereo not drawn) [proglumide]
- antitumor effect [14]: appropriate antitumor effect
- mortality rate of mice [14]: reduced
